{
  "source": "patent US20230203081A1",
  "about": "“LINCOSAMIDE ANTIBIOTICS AND USES THEREOF” (President and Fellows of Harvard College, priority 2020, published 2023)",
  "assay_type_in_all_cases": "cell-based",
  "key": {"[1]": {"test_system": "broad panel of different clinical isolates", "experiment": "microbe, parasite or virus in culture", "how_it_was_run": "(§1)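 Inoculum for broth microdilution was 5×10^5 CFU/mL final, prepared from overnight 35° C blood-agar subcultures (separate handling for streptococcal and anaerobic strains); MICs read by CLSI broth microdilution or agar dilution.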"}, "[2]": {"test_system": "E. coli armA", "experiment": "microbe, parasite or virus in culture", "settings": "Escherichia coli, E. coli armA", "how_it_was_run": "as §1"}, "[3]": {"test_system": "K. oxytoca Clinical", "experiment": "MIC (broth microdilution or agar dilution, CLSI)", "how_it_was_run": "as §1"}, "[4]": {"test_system": "S. aureus MMX 3035 cErmA", "experiment": "MIC (broth microdilution or agar dilution, CLSI)", "settings": "Staphylococcus aureus, MMX3035CERMA; S. aureus MMX 3035 cErmA; read-out: MIC", "how_it_was_run": "as §1"}, "[5]": {"test_system": "S. pyogenes ATCC 19615", "experiment": "MIC (broth microdilution or agar dilution, CLSI)", "settings": "Streptococcus pyogenes, read-out: MIC", "how_it_was_run": "as §1"}, "[6]": {"test_system": "S. pyogenes MMX 946; cErmB", "experiment": "MIC (broth microdilution or agar dilution, CLSI)", "settings": "Streptococcus pyogenes, S. pyogenes MMX 946, cErmB", "how_it_was_run": "as §1"}, "[7]": {"test_system": "S. pneumoniae MMX 3031 cMefA", "experiment": "MIC (broth microdilution or agar dilution, CLSI)", "settings": "Streptococcus pneumoniae, MMX3031CMEFA, read-out: MIC", "how_it_was_run": "as §1"}, "[8]": {"test_system": "S. aureus hVISA", "experiment": "MIC (broth microdilution or agar dilution, CLSI)", "how_it_was_run": "as §1"}, "[9]": {"test_system": "E. faecalis MMX 847; cErmB", "experiment": "MIC (broth microdilution or agar dilution, CLSI)", "settings": "Enterococcus faecalis, E. faecalis MMX 847, cErmB", "how_it_was_run": "as §1"}, "[10]": {"test_system": "S. aureus ATCC 700699", "experiment": "MIC (broth microdilution or agar dilution, CLSI)", "settings": "Staphylococcus aureus", "how_it_was_run": "as §1"}, "[11]": {"test_system": "S. aureus ATCC BAA-1707 (MRSA)", "experiment": "MIC (broth microdilution or agar dilution, CLSI)", "how_it_was_run": "as §1"}, "[12]": {"test_system": "S. pneumoniae MMX 3028 cErmB", "experiment": "MIC (broth microdilution or agar dilution, CLSI)", "settings": "Streptococcus pneumoniae, MMX3028CERMB, S. pneumoniae MMX 3028 cErmB", "how_it_was_run": "as §1"}, "[13]": {"test_system": "E. coli ATCC 25922", "experiment": "MIC (broth microdilution or agar dilution, CLSI)", "settings": "Escherichia coli", "how_it_was_run": "as §1"}, "[14]": {"test_system": "E. faecalis ATCC 29212", "experiment": "MIC (broth microdilution or agar dilution, CLSI)", "settings": "Enterococcus faecalis, read-out: MIC", "how_it_was_run": "as §1"}, "[15]": {"test_system": "K. pneumoniae ATCC 10031", "experiment": "MIC (broth microdilution or agar dilution, CLSI)", "settings": "Klebsiella pneumoniae, ATCC10031, K. pneumoniae ATCC 10031; read-out: MIC", "how_it_was_run": "as §1"}, "[16]": {"test_system": "S. pneumoniae ATCC 6303", "experiment": "MIC (broth microdilution or agar dilution, CLSI)", "how_it_was_run": "as §1"}, "[17]": {"test_system": "E. coli LptD", "experiment": "MIC (broth microdilution or agar dilution, CLSI)", "settings": "Escherichia coli, read-out: MIC", "how_it_was_run": "as §1"}, "[18]": {"test_system": "S. pneumoniae ATCC 49619", "experiment": "MIC (broth microdilution or agar dilution, CLSI)", "settings": "Streptococcus pneumoniae, read-out: MIC", "how_it_was_run": "as §1"}},
  "note": "Like-named read-outs stand apart in the source and are kept apart here.",
  "data": [
    {"smiles": "CCC[C@@H]1C[C@@H](C(=O)N[C@@H]([C@H]2O[C@H](SC)[C@H](O)[C@@H](O)[C@H]2O)[C@H](C)Cl)N(C)C1", "note": "[Clindamycin, clindamycin, reference compound]", "values": [
      {"measurement": "MIC", "setting": "[1]; Staphylococcus aureus, S. aureus HAV#212, Clinical", "result": 0.125, "unit": "µg/mL"},
      {"measurement": "MIC", "setting": "[1]; Staphylococcus aureus, S. aureus HAV#213, Clinical", "result": 0.125, "unit": "µg/mL"},
      {"measurement": "MIC", "setting": "[1]; Staphylococcus aureus, S. aureus HAV#214, Clinical", "result": 0.06, "unit": "µg/mL"},
      {"measurement": "MIC", "setting": "[1]; Staphylococcus aureus, S. aureus HAV#215, Clinical", "result": 0.125, "unit": "µg/mL"},
      {"measurement": "MIC", "setting": "[1]; Staphylococcus aureus, S. aureus HAV#216, Clinical, cfr", "result": 128, "unit": "µg/mL"},
      {"measurement": "MIC", "setting": "[1]; Staphylococcus aureus, S. aureus HAV#217, cfr", "result": "> 128", "unit": "µg/mL"},
      {"measurement": "MIC", "setting": "[1]; Staphylococcus aureus, VISA, S. aureus HAV#203, Clinical (VISA)", "result": "> 64", "unit": "µg/mL"},
      {"measurement": "MIC", "setting": "[1]; Staphylococcus epidermidis, S. epidermidis HAV# 275 Clinical, cfr", "result": "> 128", "unit": "µg/mL"},
      {"measurement": "MIC", "setting": "[1]; Staphylococcus epidermidis, S. epidermidis HAV# 276, cfr", "result": "> 128", "unit": "µg/mL"},
      {"measurement": "MIC", "setting": "[1]; Staphylococcus epidermidis, S. epidermidis HAV#277, Line R", "result": "> 128", "unit": "µg/mL"},
      {"measurement": "MIC", "setting": "[1]; Staphylococcus epidermidis, S. epidermidis HAV#278 Line R", "result": "> 128", "unit": "µg/mL"},
      {"measurement": "MIC", "setting": "[1]; Staphylococcus epidermidis, S. epidermidis HAV#279, Line R", "result": 0.25, "unit": "µg/mL"},
      {"measurement": "MIC", "setting": "[1]; Staphylococcus haemolyticus, S. haemolyticus 5052, Line R & Methicillin R", "result": 2, "unit": "µg/mL"},
      {"measurement": "MIC", "setting": "[1]; Staphylococcus haemolyticus, S. haemolyticus HAV#252, Line R & Methicillin R", "result": 2, "unit": "µg/mL"},
      {"measurement": "MIC", "setting": "[1]; Streptococcus pneumoniae, ATCC700673, S. pneumoniae HAV#352, ATCC 700673, MDR", "result": "> 64", "unit": "µg/mL"},
      {"measurement": "MIC", "setting": "[1]; Streptococcus pneumoniae, ATCCBAA255, S. pneumoniae HAV#354, ATCC-BAA-255", "result": 0.25, "unit": "µg/mL"},
      {"measurement": "MIC", "setting": "[1]; Streptococcus pneumoniae, ATCCBAA334, S. pneumoniae HAV#353, ATCC-BAA-334", "result": 0.25, "unit": "µg/mL"},
      {"measurement": "MIC", "setting": "[1]; Streptococcus pneumoniae, S. pneumoniae HAV#356, Clinical", "result": "> 64", "unit": "µg/mL"},
      {"measurement": "MIC", "setting": "[1]; Streptococcus pneumoniae, S. pneumoniae HAV#358, Clinical", "result": 0.25, "unit": "µg/mL"},
      {"measurement": "MIC", "setting": "[2]", "result": "> 128", "unit": "µg/mL"},
      {"measurement": "MIC", "setting": "[3]; K. oxytoca HAV#450, Clinical", "result": ">128", "unit": "µg/mL"},
      {"measurement": "MIC", "setting": "[3]; Klebsiella oxytoca", "result": "> 128", "unit": "µg/mL"},
      {"measurement": "MIC", "setting": "[4]", "result": "> 64", "unit": "µg/mL"},
      {"measurement": "MIC", "setting": "[5]; ATCC19615, S. pyogenes ATCC 19615", "result": "≤ 0.06", "unit": "µg/mL"},
      {"measurement": "MIC", "setting": "[5]; ATCC19615, S. pyogenes HAV#004, ATCC 19615", "result": 0.06, "unit": "µg/mL"},
      {"measurement": "MIC", "setting": "[6]", "result": "> 128", "unit": "µg/mL"},
      {"measurement": "MIC", "setting": "[6]; read-out: MIC", "result": "> 64", "unit": "µg/mL"},
      {"measurement": "MIC", "setting": "[7]; S. pneumoniae HAV#034, MMX 3031, cMefA", "result": "< 0.06", "unit": "µg/mL"},
      {"measurement": "MIC", "setting": "[7]; S. pneumoniae MMX 3031 cMefA", "result": 0.06, "unit": "µg/mL"},
      {"measurement": "MIC", "setting": "[8]; S. aureus HAV#204, hVISA", "result": ">128", "unit": "µg/mL"},
      {"measurement": "MIC", "setting": "[8]; Staphylococcus aureus", "result": "> 128", "unit": "µg/mL"},
      {"measurement": "MIC", "setting": "[9]", "result": "> 128", "unit": "µg/mL"},
      {"measurement": "MIC", "setting": "[9]; read-out: MIC", "result": "> 64", "unit": "µg/mL"},
      {"measurement": "MIC", "setting": "[10]; ATCC700699", "result": "> 128", "unit": "µg/mL"},
      {"measurement": "MIC", "setting": "[10]; ATCC 700699 / VISA", "result": "> 128", "unit": "µg/mL"},
      {"measurement": "MIC", "setting": "[11]; S. aureus HAV#016, ATCC BAA-1707, MRSA", "result": 0.125, "unit": "µg/mL"},
      {"measurement": "MIC", "setting": "[11]; Staphylococcus aureus", "result": 0.125, "unit": "µg/mL"},
      {"measurement": "MIC", "setting": "[12]", "result": "> 128", "unit": "µg/mL"},
      {"measurement": "MIC", "setting": "[12]; read-out: MIC", "result": "> 64", "unit": "µg/mL"},
      {"measurement": "MIC", "setting": "[13]; ATCC25922, E. coli ATCC 25922", "result": "> 128", "unit": "µg/mL"},
      {"measurement": "MIC", "setting": "[13]; ATCC25922, E. coli ATCC 25922, read-out: MIC", "result": "> 64", "unit": "µg/mL"},
      {"measurement": "MIC", "setting": "[13]; ATCC25922, E. coli HAV#006, ATCC 25922", "result": "> 128", "unit": "µg/mL"},
      {"measurement": "MIC", "setting": "[14]; ATCC29212, E. faecalis ATCC 29212", "result": 16, "unit": "µg/mL"},
      {"measurement": "MIC", "setting": "[14]; ATCC29212, E. faecalis HAV#005, ATCC 29212", "result": 16, "unit": "µg/mL"},
      {"measurement": "MIC", "setting": "[15]", "result": 16, "unit": "µg/mL"},
      {"measurement": "MIC", "setting": "[16]; S. pneumoniae HAV#351, ATCC 6303", "result": 0.06, "unit": "µg/mL"},
      {"measurement": "MIC", "setting": "[16]; Streptococcus pneumoniae, ATCC6303, S. pneumoniae ATCC 6303, read-out: MIC", "result": 0.06, "unit": "µg/mL"},
      {"measurement": "MIC", "setting": "[17]; E. coli HAV#040, LptD", "result": 4, "unit": "µg/mL"},
      {"measurement": "MIC", "setting": "[17]; E. coli LptD", "result": 2, "unit": "µg/mL"},
      {"measurement": "MIC", "setting": "[18]; ATCC49619, S. pneumoniae ATCC 49619", "result": "≤ 0.06", "unit": "µg/mL"},
      {"measurement": "MIC", "setting": "[18]; ATCC49619, S. pneumoniae HAV#003, ATCC 49619", "result": 0.06, "unit": "µg/mL"}
    ]}
  ]
}
